From patent US7232827B2, “Heteroaryl substituted 2-pyridinyl and 2-pyrimidinyl-6,7,8,9-tetrahydropyrimido[1,2-a]pyrimidin-4-one derivatives” (Sanofi-Aventis, priority 2002, dated 2007)

Molecular target: GSK3β (Homo sapiens, UniProt P49841)
Experiment: Inhibitory activity against GSK3β (33P-ATP phosphorylation of prephosphorylated GS1 peptide)
Format: biochemical
Conditions: single compounds; first or second protocol not specified
Description: Two different protocols can be used.
In a first protocol: 7.5 μM of prephosphorylated GS1 peptide and 10 μM ATP (containing 300,000 cpm of 33P-ATP) were incubated in 25 mM Tris-HCl, pH 7.5, 0.6 mM DTT, 6 mM MgCl2, 0.6 mM EGTA, 0.05 mg/ml BSA buffer for 1 hour at room temperature in the presence of GSK3β (total reaction volume: 100 microliters).
In a second protocol: 4.1 μM of prephosphorylated GS1 peptide and 42 μM ATP (containing 260,000 cpm 33P-ATP) were incubated in 80 mM Mes-NaOH, pH 6.5, 1 mM Mg acetate, 0.5 mM EGTA, 5 mM 2-mercaptoethanol, 0.02% Tween 20, 10% glycerol buffer for 2 hours at room temperature in the presence of GSK3β.
Inhibitors were solubilised in DMSO (final solvent concentration in the reaction medium, 1%).
The reaction was stopped with 100 microliters of a solution made of 25 g polyphosphoric acid (85% P2O5), 126 ml 85% H3PO4, H2O to 500 ml and then diluted to 1:100 before use. An aliquot of the reaction mixture was then transferred to Whatman P81 cation exchange filters and rinsed with the solution described above. Incorporated 33P radioactivity was determined by liquid scintillation spectrometry.
The phosphorylated GS-1 peptide had the following sequence: NH2-[…](P)EDEE-COOH.

GSK3β, sequence (P49841 whole entry, species assumed): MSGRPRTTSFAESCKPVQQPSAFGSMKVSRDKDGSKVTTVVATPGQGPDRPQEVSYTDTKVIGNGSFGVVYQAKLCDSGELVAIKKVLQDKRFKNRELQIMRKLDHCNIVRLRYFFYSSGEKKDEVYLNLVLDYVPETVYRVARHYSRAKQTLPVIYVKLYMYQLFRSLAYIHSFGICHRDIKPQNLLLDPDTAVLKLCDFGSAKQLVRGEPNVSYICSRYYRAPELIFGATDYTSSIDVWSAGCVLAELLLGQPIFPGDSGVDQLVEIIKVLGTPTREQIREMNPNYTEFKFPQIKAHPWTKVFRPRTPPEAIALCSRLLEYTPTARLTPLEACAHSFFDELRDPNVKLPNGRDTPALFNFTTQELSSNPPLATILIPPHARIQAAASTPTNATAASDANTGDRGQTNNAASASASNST

Row | Compound | IC50 [nM]
1 | Cc1ccc2c(n1)CC(CN1CC(C)(C)Cn3c1nc(-c1ccncc1)cc3=O)C2 (racemic) [compound 4 of table 1A, (+/−)-7,7-Dimethyl-9-(2-methyl-6,7-dihydro-5H-[1]pyrindin-6-ylmethyl) -2-(pyridin-4-yl)-6,7,8,9-tetrahydro-pyrimido[1,2-a]pyrimidin-4-one] | 8
2 | CC1CCn2c(nc(-c3ccncn3)cc2=O)N1CC1COc2ccccc2O1 (centres unmarked) [compound 8 of table 2B, 9-(2,3-Dihydro-benzo[1,4]dioxin-2-ylmethyl)-8-methyl-2-pyrimidin-4-yl-6,7,8,9-tetrahydro-pyrimido[1,2-a]pyrimidin-4-one] | 15
